# Test results taken from ChEMBL document CHEMBL1201862, “PubChem BioAssay data set” (2004).
# Activity calls are given as the source filed them.
# Tests used:
# Cytochrome P450 2C19 = Cytochrome P450 2C19 (Homo sapiens, UniProt P33261); test: Cytochrome panel assay with activity outcomes. Panel member name: p450-cyp2c19 Compounds with AC50 equal or less than 10 uM are considered active; format: functional; conditions: read-out: AC50
# Cytochrome P450 2C9 = Cytochrome P450 2C9 (Homo sapiens, UniProt P11712)
# Cytochrome P450 2C9, sequence (P11712 whole entry): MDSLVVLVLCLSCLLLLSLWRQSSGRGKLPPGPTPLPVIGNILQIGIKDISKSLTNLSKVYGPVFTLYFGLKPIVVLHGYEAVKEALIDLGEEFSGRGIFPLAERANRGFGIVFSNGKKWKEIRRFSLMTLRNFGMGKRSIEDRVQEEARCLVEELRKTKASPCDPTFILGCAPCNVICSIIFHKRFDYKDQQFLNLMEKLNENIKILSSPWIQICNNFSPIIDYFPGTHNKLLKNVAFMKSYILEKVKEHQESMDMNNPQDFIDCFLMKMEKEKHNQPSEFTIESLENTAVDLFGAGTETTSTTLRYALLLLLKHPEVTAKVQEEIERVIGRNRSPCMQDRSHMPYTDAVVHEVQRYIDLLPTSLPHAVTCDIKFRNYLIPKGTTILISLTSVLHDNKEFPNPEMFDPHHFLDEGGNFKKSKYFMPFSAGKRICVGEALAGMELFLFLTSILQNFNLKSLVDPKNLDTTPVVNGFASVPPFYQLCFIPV
# Cytochrome P450 3A4 = Cytochrome P450 3A4 (Homo sapiens, UniProt P08684);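 further: CYP3A4 tested as one member of a cytochrome P450 panel screen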
# Cytochrome P450 3A4, sequence (P08684 whole entry): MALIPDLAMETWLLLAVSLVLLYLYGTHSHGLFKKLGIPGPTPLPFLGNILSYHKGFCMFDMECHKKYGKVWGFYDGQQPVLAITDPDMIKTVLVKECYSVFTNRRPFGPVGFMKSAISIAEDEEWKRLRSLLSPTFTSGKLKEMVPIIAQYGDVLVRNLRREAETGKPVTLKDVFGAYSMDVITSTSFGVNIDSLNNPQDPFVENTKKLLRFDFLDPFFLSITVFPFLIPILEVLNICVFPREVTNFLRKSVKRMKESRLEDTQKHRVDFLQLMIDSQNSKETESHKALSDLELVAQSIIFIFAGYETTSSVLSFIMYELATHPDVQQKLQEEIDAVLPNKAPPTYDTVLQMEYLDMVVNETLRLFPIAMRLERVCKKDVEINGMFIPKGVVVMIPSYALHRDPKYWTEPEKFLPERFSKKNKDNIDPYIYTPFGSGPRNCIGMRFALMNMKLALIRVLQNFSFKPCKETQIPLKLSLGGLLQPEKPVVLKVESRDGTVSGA
# [1] = target: Beta-2 adrenergic receptor (Homo sapiens, UniProt P07550); test: ADRB2 activation measured by internalization – cell-based, FAP fluorogen, flow cytometry, cherry pick 1, dose response (AID 588763); format: functional
# Beta-2 adrenergic receptor, sequence (P07550 whole entry): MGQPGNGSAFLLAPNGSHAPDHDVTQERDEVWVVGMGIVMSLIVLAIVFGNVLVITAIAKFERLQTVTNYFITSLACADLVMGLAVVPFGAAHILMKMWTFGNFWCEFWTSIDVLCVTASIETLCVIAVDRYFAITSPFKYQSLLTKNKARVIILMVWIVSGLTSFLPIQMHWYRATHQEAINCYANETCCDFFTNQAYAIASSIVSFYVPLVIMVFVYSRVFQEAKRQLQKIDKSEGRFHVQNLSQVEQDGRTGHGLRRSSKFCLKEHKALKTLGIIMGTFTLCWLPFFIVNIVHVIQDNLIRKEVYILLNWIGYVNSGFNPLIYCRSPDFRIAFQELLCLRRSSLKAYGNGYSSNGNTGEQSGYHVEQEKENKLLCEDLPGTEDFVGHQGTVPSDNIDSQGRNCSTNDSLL
# Cytochrome P450 1A2 = target: T1, Cytochrome P450 1A2 (Homo sapiens, UniProt P05177);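 further: PubChem cytochrome P450 panel assay, CYP1A2 panel member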
# T1 sequence (P05177 whole entry): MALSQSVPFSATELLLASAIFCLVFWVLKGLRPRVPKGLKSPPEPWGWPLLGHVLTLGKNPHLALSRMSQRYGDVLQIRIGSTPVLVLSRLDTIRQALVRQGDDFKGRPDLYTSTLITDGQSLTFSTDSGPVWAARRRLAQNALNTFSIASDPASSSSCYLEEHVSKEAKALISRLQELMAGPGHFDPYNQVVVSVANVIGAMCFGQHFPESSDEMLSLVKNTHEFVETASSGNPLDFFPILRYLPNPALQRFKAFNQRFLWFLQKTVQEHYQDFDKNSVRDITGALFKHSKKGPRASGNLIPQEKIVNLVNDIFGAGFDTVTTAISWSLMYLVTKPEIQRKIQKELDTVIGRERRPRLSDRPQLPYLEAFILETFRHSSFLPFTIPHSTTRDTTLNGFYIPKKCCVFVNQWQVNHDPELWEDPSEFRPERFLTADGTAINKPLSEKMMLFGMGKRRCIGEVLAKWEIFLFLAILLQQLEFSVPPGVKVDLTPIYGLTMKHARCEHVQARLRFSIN
# [2] = non-specific 3'UTR reporter inhibition in Clone20-Shn3RL – cell-based, Renilla luciferase, cherry-picked, counter-screen for Shn3 inhibitor project, dose response (AID 624133); format: functional
# HEK293 [3] = test: NOD2 signaling inhibitors in MDP-stimulated cells, cell-based, uHTS, luminescence (AID 2001); format: functional; conditions: Homo sapiens
# [4] = reduction of Shn3 3'UTR-driven luciferase in osteoblasts – cell-based, Clone20 osteoblasts, firefly luciferase, cherry-picked, dose response (AID 624132); format: functional;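 further: firefly luciferase luminescence from reporter carrying the Shn3 3'UTR in osteoblasts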
# HEK293 [5] = test: cells; format: functional, cell-based; conditions: Homo sapiens
# HEK293 [6] = test: inhibition of NOD1-driven NF-kB reporter – cell-based, luminescence, uHTS, primary screen (AID 1578); format: functional; conditions: Homo sapiens
# [7] = loss of viability in HepG2 cells – cell-based, CellTiter-Glo, cherry-picked, cytotoxicity control for Shn3 inhibitor project, dose response (AID 624134); format: functional
# HEK293 [8] = test: cells; format: functional, cell-based; conditions: Homo sapiens; remark: listed apart in the source
# HEK293 [9] = test: cells; conditions: Homo sapiens
# HEK293 [10] = test: cells; conditions: Homo sapiens; remark: listed apart in the source
# Protein skinhead-1 = target: T2, Protein skinhead-1 (Caenorhabditis elegans, UniProt P34707); format: functional
# T2 sequence (P34707 whole entry): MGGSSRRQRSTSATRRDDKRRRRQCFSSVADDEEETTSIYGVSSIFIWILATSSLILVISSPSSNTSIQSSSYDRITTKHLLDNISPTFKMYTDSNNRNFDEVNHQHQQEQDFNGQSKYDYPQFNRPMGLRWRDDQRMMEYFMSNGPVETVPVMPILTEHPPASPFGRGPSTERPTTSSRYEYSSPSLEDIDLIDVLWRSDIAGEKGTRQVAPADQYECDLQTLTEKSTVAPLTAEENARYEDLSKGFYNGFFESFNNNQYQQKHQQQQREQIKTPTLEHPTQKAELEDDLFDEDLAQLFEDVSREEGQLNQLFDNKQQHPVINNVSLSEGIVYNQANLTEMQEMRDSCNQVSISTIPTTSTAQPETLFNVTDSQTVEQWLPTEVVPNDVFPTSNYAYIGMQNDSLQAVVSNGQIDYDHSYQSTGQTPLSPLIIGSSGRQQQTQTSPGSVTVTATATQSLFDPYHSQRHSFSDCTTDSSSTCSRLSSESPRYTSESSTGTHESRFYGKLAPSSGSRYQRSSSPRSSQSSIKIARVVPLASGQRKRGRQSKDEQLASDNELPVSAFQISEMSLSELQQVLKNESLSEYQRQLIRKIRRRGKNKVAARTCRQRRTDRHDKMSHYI
# [11] = Luminescence Cell-Based Dose Retest to Confirm Inhibitors of Cancer Stem Cells. [Related pubchem assays (depositor defined):AID2717, AID2721]; format: functional; conditions: Homo sapiens
# [12] = Fluorescence-based cell-based high throughput dose response assay for inhibitors of the interaction of nucleotide-binding oligomerization domain containing 2 (NOD2) and the receptor-interacting serine-threonine kinase 2 (RIPK2).; format: functional; conditions: Homo sapiens
# CHO = CHO cell viability loss, potency – luminescence, cytotoxicity control for TLR9-MyD88 binding inhibitor project, dose response (AID 588339); format: functional, cell-based, hamster; conditions: Cricetulus griseus;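 further: CHO cells stably coexpressing TLR9 and MyD88 fusions from primary screen; compound exposure lasted 48 hours before viability readout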
# [13] = Counterscreen for AddAB inhibitors: absorbance-based bacterial cell-based high throughput dose response assay for inhibitors of bacterial viability. [Related pubchem assays (depositor defined):AID435030, AID449728, AID449731, AID488942, AID488955, AID488956]; format: functional
# [14] = Luminescence Cell-Based Dose Confirmation HTS to Identify Activators of 5'UTR Stem-Loop Driven Alpha-Synuclein mRNA Translation in H4 Neuroglioblastoma Cells. [Related pubchem assays: 1829 (Project Summary), 1814 (Primary HTS)]; format: functional
# HEK293 [15] = test: cells; format: functional, cell-based; conditions: Homo sapiens; remark: listed apart in the source
# [16] = Luminescence Cell-Based Dose Response HTS to Identify Activators of Luciferase Translation or Activity in H4 […] Cells. [Related pubchem assays: 1829 (Project Summary), 1814 (Primary HTS)]; format: functional
# H4 = test: Luminescence Cell-Based Dose Response HTS to Identify Activators of 5'UTR Stem-Loop Driven Prion Protein mRNA Translation in H4 Neuroglioblastoma Cells. [Related pubchem assays: 1829 (Project Summary), 1814 (Primary HTS)]; format: functional; conditions: Homo sapiens
# [17] = target: Nuclear receptor subfamily 0 group B member 1 (Homo sapiens, UniProt P51843); test: Luminescence-based cell-based high throughput dose response assay for inhibitors of the orphan nuclear receptor subfamily 0, group B, member 1 (DAX1; NR0B1). [Related pubchem assays (depositor defined):AID504766, AID504790]; format: functional
# Nuclear receptor subfamily 0 group B member 1, sequence (P51843 whole entry): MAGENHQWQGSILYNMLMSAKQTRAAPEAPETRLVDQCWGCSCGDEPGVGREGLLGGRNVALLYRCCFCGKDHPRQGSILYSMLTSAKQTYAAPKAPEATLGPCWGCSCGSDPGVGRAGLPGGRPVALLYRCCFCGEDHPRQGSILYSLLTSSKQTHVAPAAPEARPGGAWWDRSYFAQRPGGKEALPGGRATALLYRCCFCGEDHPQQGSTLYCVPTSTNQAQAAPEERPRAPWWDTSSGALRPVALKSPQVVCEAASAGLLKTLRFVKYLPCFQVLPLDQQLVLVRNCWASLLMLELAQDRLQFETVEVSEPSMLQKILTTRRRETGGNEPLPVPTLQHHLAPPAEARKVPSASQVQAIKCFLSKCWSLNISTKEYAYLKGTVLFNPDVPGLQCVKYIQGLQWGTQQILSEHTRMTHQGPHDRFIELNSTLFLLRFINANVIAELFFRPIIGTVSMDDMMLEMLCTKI
# [18] = target: Dual specificity tyrosine-phosphorylation-regulated kinase 1A (Rattus norvegicus, UniProt Q63470); format: biochemical, Homo sapiens
# Keap1/Nrf2 = Keap1/Nrf2 (Homo sapiens, UniProt Q14145); test: disruptors of Keap1 binding to Nrf2 peptide – biochemical, fluorescence polarization, cherry-picked samples, dose response (AID 588683)
# Keap1/Nrf2, sequence (Q16236 whole entry): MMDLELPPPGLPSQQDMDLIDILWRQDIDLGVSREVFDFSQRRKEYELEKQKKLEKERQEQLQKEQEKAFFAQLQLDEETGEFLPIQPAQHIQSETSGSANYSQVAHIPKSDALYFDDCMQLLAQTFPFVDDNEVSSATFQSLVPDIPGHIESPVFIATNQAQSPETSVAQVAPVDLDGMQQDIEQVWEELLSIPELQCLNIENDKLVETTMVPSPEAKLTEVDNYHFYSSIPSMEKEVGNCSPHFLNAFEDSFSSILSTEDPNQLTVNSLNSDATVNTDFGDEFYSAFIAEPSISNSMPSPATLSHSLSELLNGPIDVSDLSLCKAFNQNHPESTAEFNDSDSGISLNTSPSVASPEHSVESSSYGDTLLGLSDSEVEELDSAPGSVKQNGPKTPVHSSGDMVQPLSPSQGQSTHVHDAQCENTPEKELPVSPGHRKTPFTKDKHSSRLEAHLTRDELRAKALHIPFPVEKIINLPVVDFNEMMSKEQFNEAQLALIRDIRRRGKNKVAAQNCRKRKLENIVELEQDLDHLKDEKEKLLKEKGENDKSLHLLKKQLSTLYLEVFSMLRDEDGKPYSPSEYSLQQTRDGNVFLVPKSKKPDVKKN
# Keap1/Nrf2, sequence (Q14145 whole entry): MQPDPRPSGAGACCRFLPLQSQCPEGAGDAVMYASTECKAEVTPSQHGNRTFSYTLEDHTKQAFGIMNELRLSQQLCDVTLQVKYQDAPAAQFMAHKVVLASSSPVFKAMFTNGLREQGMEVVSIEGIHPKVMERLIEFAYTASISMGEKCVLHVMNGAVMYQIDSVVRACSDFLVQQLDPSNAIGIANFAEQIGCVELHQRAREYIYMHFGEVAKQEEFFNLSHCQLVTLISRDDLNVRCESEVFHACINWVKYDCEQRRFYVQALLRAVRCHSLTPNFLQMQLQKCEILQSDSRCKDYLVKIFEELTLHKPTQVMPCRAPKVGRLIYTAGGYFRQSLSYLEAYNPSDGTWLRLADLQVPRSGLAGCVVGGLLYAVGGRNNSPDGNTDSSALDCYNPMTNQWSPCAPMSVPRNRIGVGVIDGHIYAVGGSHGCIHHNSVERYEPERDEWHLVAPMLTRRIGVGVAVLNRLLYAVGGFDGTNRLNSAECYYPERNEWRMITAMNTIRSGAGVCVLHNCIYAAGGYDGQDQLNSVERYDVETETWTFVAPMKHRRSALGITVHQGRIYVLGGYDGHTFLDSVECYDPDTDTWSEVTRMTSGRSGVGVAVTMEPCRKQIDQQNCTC
# [19] = target: T3, Microphthalmia-associated transcription factor (Homo sapiens, UniProt O75030); test: reducers of TRPM1 reporter luminescence, concentration series – cell-based, SK-MEL-5, cherry-picked, set 3, MITF inhibitor project, dose response (AID 493073); format: functional;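 further: SK-MEL-5 melanoma cells with luciferase driven by the MITF target TRPM1 promoter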
# T3 sequence (O75030 whole entry): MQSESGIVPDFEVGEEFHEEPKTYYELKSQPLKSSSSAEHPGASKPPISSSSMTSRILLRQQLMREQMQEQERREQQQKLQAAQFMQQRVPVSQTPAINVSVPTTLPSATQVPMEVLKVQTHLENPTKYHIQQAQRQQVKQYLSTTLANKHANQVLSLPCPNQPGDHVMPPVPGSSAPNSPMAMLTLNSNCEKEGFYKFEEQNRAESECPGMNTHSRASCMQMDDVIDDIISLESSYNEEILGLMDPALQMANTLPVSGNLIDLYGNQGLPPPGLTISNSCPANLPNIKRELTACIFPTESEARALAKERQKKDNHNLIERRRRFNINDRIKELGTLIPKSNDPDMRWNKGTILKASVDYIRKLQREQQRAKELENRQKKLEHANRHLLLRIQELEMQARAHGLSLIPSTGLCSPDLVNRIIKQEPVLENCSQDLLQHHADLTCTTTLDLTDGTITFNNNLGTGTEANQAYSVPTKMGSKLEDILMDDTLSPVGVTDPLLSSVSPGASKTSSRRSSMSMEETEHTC
# Vero [20] = test: cells; format: functional; conditions: Chlorocebus sabaeus
# [21] = viability of PTEN-deleted HCT116 cells – cell-based, HCT116 PTEN knockout, dose response (AID 1047); format: functional;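 further: HCT116 colon tumor cells with PTEN knocked out; cells exposed to compound for 60 hours before readout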
# [22] = viability of HCT116 lacking mutant beta-catenin – cell-based, human colon tumor, dose response (AID 1045); format: functional;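 further: HCT116 colon tumor cells with beta catenin knocked out; cells exposed to compound for 60 hours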
# Vero [23] = test: cells; format: functional, cell-based; conditions: Chlorocebus sabaeus
# [24] = blockers of HIV-1 ZM109 envelope-driven cell-cell fusion – HeLa effector, CEM target cells, luciferase, cherry-pick, dose response (AID 652058); format: functional, cell-based;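 further: luciferase signal from HIV-1 Env mediated cell-cell fusion of effector and target cells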
# [25] = blockers of HIV-1 envelope-mediated cell-cell fusion – cherry-pick, dose response (AID 652057); format: functional, cell-based
# [26] = Trypanosoma cruzi growth suppression in host cells – NIH3T3 host cells, beta-gal luminescence, confirmation (AID 2044); format: functional, cell-based;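 further: intracellular parasites grown in NIH/3T3 mouse fibroblasts as host cells; luminescent beta-galactosidase reporter signal from transgenic T. cruzi replicating inside host cells; inhibitors lower the luminescence signal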
# [27] = NIH3T3 cell viability loss – ATP luminescence, mouse fibroblasts, counter-screen, dose response (AID 2010); format: functional, cell-based;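 further: cells exposed to compound for about 90 hours before reading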
# [28] = HIV-1 AD8 envelope cell-cell fusion blockers – cherry-pick, dose response (AID 652062); format: functional, cell-based;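 further: luciferase signal from cell-cell fusion driven by HIV-1 clade B AD8 Env; potency is for inhibitors of fusion seen as a drop in luminescence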
# [29] = off-target signal loss in HeLa-CEM21 co-culture – HeLa F-luc CTL cells, cherry-picked, counter-screen for HIV-1 Env fusion inhibitor project, dose response (AID 652040); format: functional, cell-based;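 further: potency for signal decrease marking cytotoxic or nonspecific inhibition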
# [30] = viability loss in CEM21 cells – cell-based, CellTiter-Glo luminescence, cherry-picked, cytotoxicity control for viral fusion inhibitor project, dose response (AID 652042); format: functional;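 further: potency for signal decrease meaning cytotoxicity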
# Cytochrome P450 2C19, sequence (P33261 whole entry): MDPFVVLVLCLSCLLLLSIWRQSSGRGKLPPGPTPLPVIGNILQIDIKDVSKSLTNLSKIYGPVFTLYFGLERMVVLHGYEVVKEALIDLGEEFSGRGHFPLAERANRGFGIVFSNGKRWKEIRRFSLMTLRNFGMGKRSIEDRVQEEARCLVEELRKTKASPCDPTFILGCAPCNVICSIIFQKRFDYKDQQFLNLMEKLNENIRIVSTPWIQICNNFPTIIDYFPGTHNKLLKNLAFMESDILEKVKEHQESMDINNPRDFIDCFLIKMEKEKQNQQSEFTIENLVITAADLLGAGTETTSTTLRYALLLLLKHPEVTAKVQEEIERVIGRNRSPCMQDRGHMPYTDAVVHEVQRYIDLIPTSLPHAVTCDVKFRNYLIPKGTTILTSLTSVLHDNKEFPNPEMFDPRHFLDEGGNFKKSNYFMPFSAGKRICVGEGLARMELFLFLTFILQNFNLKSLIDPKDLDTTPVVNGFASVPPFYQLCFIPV
smiles,measurement,setting,value
CC(C)c1ccc(N(C(=O)C(F)(F)F)C(C(=O)NC2CCCCC2)c2ccncc2)cc1 (stereo not given),AC50,Cytochrome P450 2C19,1.12 µM (inconclusive)
same,AC50,Cytochrome P450 2C9,2.24 µM (inconclusive)
same,AC50,Cytochrome P450 3A4,inconclusive
CC(=O)Nc1ccc(S(=O)(=O)NCCc2csc(-c3cccnc3)n2)cc1,EC50,[1],0.162 µM (active)
Cc1nn(C)c(Oc2cccc(Cl)c2)c1C=O,AC50,Cytochrome P450 1A2,11.2 µM (inconclusive)
same,AC50,Cytochrome P450 2C9,0.891 µM (inconclusive)
same,AC50,Cytochrome P450 3A4,inconclusive
S=C(NNc1ccnc2cc(Cl)ccc12)Nc1ccc(Cl)cc1Cl,AC50,[2],3.96 µM (active)
same,IC50,HEK293 [3],11.6 µM (inactive)
same,AC50,[4],4.9 µM (active)
same,IC50,HEK293 [5],> 20 µM (inactive)
same,EC50,HEK293 [6],> 20 µM (inactive)
same,AC50,[7],> 70 µM (inactive)
same,IC50,HEK293 [8],11.2 µM (active)
COc1ccccc1CN(Cc1cc2c(C)ccc(C)c2nc1O)Cc1nnnn1Cc1ccco1,EC50,HEK293 [9],> 59.6 µM (inactive)
same,EC50,HEK293 [10],> 59.6 µM (inactive)
same,IC50,Protein skinhead-1,> 100 µM (inactive)
C=CCn1c(O)nnc1Sc1ncc([N+](=O)[O-])s1,AC50,[11],1.85 µM (active)
same,IC50,[12],1.32 µM (active)
same,IC50,CHO,1.99 µM (active)
same,IC50,[13],21.7 µM (inactive)
Cc1ccccc1OCC(=O)Nc1ccc2c(c1)OCCO2,EC50,[14],51.8 µM (active)
same,IC50,HEK293 [15],> 67.5 µM (inactive)
same,EC50,[16],4.75 µM (active)
same,EC50,H4,75.2 µM (active)
same,IC50,[17],> 67.5 µM (inactive)
O=C(NCCN1CCCCC1)Nc1ccc([N+](=O)[O-])cc1,IC50,HEK293 [15],> 67.5 µM (inactive)
same,IC50,[17],> 67.5 µM (inactive)
O=C1c2ccccc2C(=O)c2c1ccc(O)c2O [ATHRAQUINONES A],AC50,[18],4.54 µM (active)
same,AC50,Keap1/Nrf2,> 52 µM (inactive)
Cc1ccccc1Cn1c(=N)n(CC(=O)c2ccc([N+](=O)[O-])cc2)c2ccccc21,AC50,[19],5.63 µM (active)
same,CC50,Vero [20],14 µM (active)
same,EC50,[21],9.32 µM (active)
same,EC50,[22],8.1 µM (active)
same,EC50,[1],15.2 µM (inactive)
same,IC50,Vero [23],> 25 µM (active)
CCN(CC(O)CON=C1c2ccccc2-c2ccccc21)S(=O)(=O)c1ccc(C)cc1 (stereo not given),AC50,[24],2.97 µM (active)
same,EC50,HEK293 [9],> 59.6 µM (inactive)
same,EC50,HEK293 [10],> 59.6 µM (inactive)
same,AC50,[25],2.96 µM (active)
same,EC50,[26],1.68 µM (active)
same,EC50,[27],> 60 µM (not active)
same,AC50,[28],2.44 µM (active)
same,AC50,[29],4.5 µM (active)
same,AC50,[30],41.7 µM (active)
